Laboratory results from ChEMBL document CHEMBL1201862, “PubChem BioAssay data set” (2004).
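Five compound concentrations were applied to cells in 96-well plates for 48 hours; endpoints were derived by simple linear interpolation of the resulting dose-response curve. GI50: concentration for 50% inhibition of growth.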 Active and inactive are the calls of the source. Rule as the data show it: active = GI50 up to about 1.1 µM and inactive = higher.

Tests used:
Assay in all cases: growth of human tumour cells (NCI), 48 h
SF-295 = tested on: SF-295
OVCAR-5 = tested on: OVCAR-5
786-0 = tested on: 786-0
OVCAR-4 = tested on: OVCAR-4
ACHN = tested on: ACHN
NCI-H23 = tested on: NCI-H23
Malme-3M = tested on: Malme-3M
RPMI-8226 = tested on: RPMI-8226
KM12 = tested on: KM12
NCI-H226 = tested on: NCI-H226
RXF 393 = tested on: RXF 393
DLD-1 = tested on: DLD-1
IGROV-1 = tested on: IGROV-1
SW-620 = tested on: SW-620
HT-29 = tested on: HT-29
HCT-116 = tested on: HCT-116
UACC-257 = tested on: UACC-257
SK-MEL-2 = tested on: SK-MEL-2
Hs-578T = tested on: Hs-578T
MDA-N = tested on: MDA-N

Measured: GI50

CC1=C(C)C(=O)c2c(cc3ccccn23)C1=O
inactive: SF-295 17.1 µM | OVCAR-5 45.6 µM | 786-0 27.9 µM | OVCAR-4 27.8 µM | ACHN 32.2 µM | NCI-H23 10.2 µM | Malme-3M 4.9 µM | RPMI-8226 15.8 µM | KM12 16.6 µM | NCI-H226 26.8 µM | RXF 393 14.7 µM | DLD-1 > 10 µM | IGROV-1 24.5 µM | SW-620 19.2 µM | HT-29 18.5 µM

CCOC(=O)C1(Cc2ccc3ccccc3c2)CCCCCN1 (stereo not drawn)
inactive: SF-295 19 µM | 786-0 17.3 µM | OVCAR-4 31.4 µM | ACHN 58.2 µM | NCI-H23 30 µM | Malme-3M 16.5 µM | RPMI-8226 5.6 µM | RXF 393 20.4 µM | DLD-1 25.9 µM | IGROV-1 > 100 µM | SW-620 24.5 µM | HT-29 12.6 µM

c1ccc([P+](c2ccccc2)(c2ccccc2)C2Sc3ccccc3S2)cc1
inactive: SF-295 17.4 µM | OVCAR-5 19.7 µM | 786-0 17.3 µM | HCT-116 12.8 µM | OVCAR-4 18.9 µM | ACHN 17.3 µM | NCI-H23 10.5 µM | Malme-3M 13.9 µM | RPMI-8226 16.7 µM | KM12 21.9 µM | NCI-H226 12.5 µM | UACC-257 16.4 µM | RXF 393 14.9 µM | DLD-1 12.4 µM | IGROV-1 > 100 µM | SW-620 > 100 µM | HT-29 23 µM

CCOC(=O)C1(C)CCCCC(=O)N1 (stereo not drawn)
inactive: SF-295 > 100 µM | 786-0 > 100 µM | OVCAR-4 > 100 µM | ACHN > 100 µM | NCI-H23 > 100 µM | Malme-3M > 100 µM | RXF 393 > 100 µM | DLD-1 > 100 µM | IGROV-1 > 100 µM | SW-620 > 100 µM | HT-29 > 100 µM

O=C(Sc1c(-c2ccccc2)c(=O)n(-c2ccccc2)c(=S)n1-c1ccccc1)c1ccco1
inactive: SK-MEL-2 > 100 µM | Hs-578T > 73.5 µM | SF-295 > 100 µM | OVCAR-5 > 100 µM | 786-0 > 100 µM | HCT-116 > 100 µM | OVCAR-4 > 100 µM | ACHN > 100 µM | NCI-H23 > 100 µM | Malme-3M > 69.5 µM | RPMI-8226 33.8 µM | KM12 > 100 µM | NCI-H226 > 100 µM | UACC-257 > 31.6 µM | RXF 393 > 100 µM | MDA-N > 90.6 µM | IGROV-1 > 100 µM | SW-620 > 57.5 µM | HT-29 > 100 µM

O=C(NCCCc1cn[nH]c(=O)n1)c1cccc2nc3ccccc3nc12
inactive: SK-MEL-2 > 100 µM | Hs-578T > 100 µM | SF-295 31.7 µM | OVCAR-5 > 100 µM | 786-0 40.7 µM | HCT-116 42 µM | OVCAR-4 > 100 µM | ACHN 31.6 µM | NCI-H23 > 100 µM | Malme-3M 36.5 µM | RPMI-8226 > 100 µM | KM12 > 100 µM | NCI-H226 > 100 µM | UACC-257 > 100 µM | RXF 393 41.5 µM | MDA-N > 100 µM | IGROV-1 > 100 µM | SW-620 > 100 µM | HT-29 > 100 µM

O=C1c2c(ccc3c2CCCC3)CC1Cc1ccc2c(c1)CCCC2 (stereo not drawn)
inactive: SK-MEL-2 47.3 µM | Hs-578T 20 µM | SF-295 33.8 µM | OVCAR-5 > 100 µM | 786-0 64 µM | HCT-116 25.5 µM | OVCAR-4 28.8 µM | ACHN 80.4 µM | NCI-H23 39.5 µM | Malme-3M 54.8 µM | RPMI-8226 21.6 µM | KM12 59.2 µM | NCI-H226 > 100 µM | UACC-257 28.3 µM | RXF 393 14.3 µM | MDA-N 39 µM | IGROV-1 > 100 µM | SW-620 61.7 µM | HT-29 17.1 µM

O=C(O)Cn1ccnc1[N+](=O)[O-]
inactive: SK-MEL-2 > 100 µM | Hs-578T > 100 µM | SF-295 > 100 µM | OVCAR-5 > 100 µM | 786-0 > 100 µM | HCT-116 > 100 µM | OVCAR-4 > 100 µM | ACHN > 100 µM | NCI-H23 > 100 µM | Malme-3M > 100 µM | RPMI-8226 > 100 µM | KM12 > 100 µM | NCI-H226 > 100 µM | UACC-257 > 100 µM | RXF 393 > 100 µM | MDA-N > 100 µM | IGROV-1 > 100 µM | SW-620 > 100 µM | HT-29 > 100 µM

CC1CN1c1c(C(=O)/C=C/c2ccc(Cl)cc2)c(-c2ccccc2)nn(C)c1=O (stereo not drawn)
inactive: SK-MEL-2 2.4 µM | SF-295 3.96 µM | OVCAR-5 5.47 µM | 786-0 2.81 µM | HCT-116 2.52 µM | OVCAR-4 2.61 µM | ACHN 2.33 µM | NCI-H23 2.77 µM | Malme-3M 8.97 µM | KM12 3.3 µM | NCI-H226 4.99 µM | UACC-257 3.67 µM | RXF 393 3.01 µM | DLD-1 1.71 µM | IGROV-1 3.05 µM | SW-620 2.44 µM | HT-29 3.65 µM
